According to paper PMC4381330, “Identification of a novel selective agonist of PPARγ with no promotion of adipogenesis and less inhibition of osteoblastogenesis” (Scientific Reports, 2015):

Key:
[1] = target: T1, human PPARγ-LBD (Homo sapiens, UniProt P37231); assay: GAL4-PPARγ-LBD luciferase reporter gene assay in HEK293T cells; assay type: cell-based
T1 construct: expressed in transfected cells; host or cells: HEK293T
T1 sequence (P37231 172-476 isoform P37231-2): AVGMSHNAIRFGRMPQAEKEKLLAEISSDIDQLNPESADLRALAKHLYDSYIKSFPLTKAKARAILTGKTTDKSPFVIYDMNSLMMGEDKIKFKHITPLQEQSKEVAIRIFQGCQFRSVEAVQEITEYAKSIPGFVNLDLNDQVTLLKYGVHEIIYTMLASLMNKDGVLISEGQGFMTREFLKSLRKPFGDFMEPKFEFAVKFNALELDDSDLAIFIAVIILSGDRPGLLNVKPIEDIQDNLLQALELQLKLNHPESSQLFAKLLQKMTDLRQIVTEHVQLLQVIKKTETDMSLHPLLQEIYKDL
Experimental: (§1) The determination of nuclear receptor activation was performed as previously. Briefly, HEK293T cells were transfected with GAL4-pGL4-luc reporter plasmid and pBIND-PPARγ-LBD expression plasmid using Lipofectamine 2000 (Invitrogen) for 6 h before treatment with compounds for 20–24 h. Activity was determined by the Luciferase Assay System (Promega).

[2] = target: T2, LXRβ (Homo sapiens, UniProt P55055); assay: Receptor-specific transactivation, GAL4-LBD reporter in HEK293T cells; assay type: cell-based; details: 30 μM F12016
T2 construct: expressed in transfected cells; host or cells: HEK293T
T2 sequence (P55055 222-460 limits assumed): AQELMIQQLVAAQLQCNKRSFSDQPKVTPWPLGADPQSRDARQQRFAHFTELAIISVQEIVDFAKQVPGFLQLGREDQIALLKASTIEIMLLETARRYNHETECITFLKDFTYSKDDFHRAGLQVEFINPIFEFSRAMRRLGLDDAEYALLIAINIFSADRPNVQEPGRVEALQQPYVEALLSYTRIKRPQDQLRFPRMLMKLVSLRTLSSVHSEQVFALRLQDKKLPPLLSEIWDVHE
Experimental: (§2) HEK293T cells were cotransfected with a GAL4-pGL4-luc reporter and plasmids encoding various nuclear receptor LBDs fused with the GAL4 DNA-binding domain. […] LXR, liver X receptor; RXR, retinoid X receptor.
as §1

[3] = test system: RXR; assay: as above; assay type: cell-based; details: 30 μM F12016
Experimental: as §2, §1

[4] = target: T3, human PPARγ LBD (Homo sapiens, UniProt P37231); assay: LanthaScreen TR-FRET PPARγ competitive binding assay; details: purified human PPARγ LBD
T3 construct: incubated with GST-fused human PPARγ-LBD, terbium-labeled anti-GST antibody; purchased Invitrogen
T3 sequence (P37231 238-503 limits assumed): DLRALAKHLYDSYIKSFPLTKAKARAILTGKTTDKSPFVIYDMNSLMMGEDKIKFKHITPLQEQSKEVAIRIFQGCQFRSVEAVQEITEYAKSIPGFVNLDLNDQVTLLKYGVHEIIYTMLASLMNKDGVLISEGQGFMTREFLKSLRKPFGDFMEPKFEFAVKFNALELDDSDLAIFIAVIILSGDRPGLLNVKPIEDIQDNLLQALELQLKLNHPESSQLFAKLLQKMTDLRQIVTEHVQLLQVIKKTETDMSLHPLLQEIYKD
Experimental: The LanthaScreen time-resolved fluorescence resonance energy transfer (TR-FRET) PPARγ competitive binding assay (Invitrogen) was performed according to the manufacturer's protocol. […] The FRET signal was measured by excitation at 340 nm and emission at 520 nm for fluorescein and 495 nm for terbium. In this assay, test compounds' binding to PPARγ LBD competed with Pan-PPAR Green and replaced it, resulting in a decrease of signal. The ability of binding to the PPARγ-LBD was measured by the decrease of the 520 nm/495 nm ratio. Graphs were plotted as fold changes of the FRET signal for compounds over the DMSO-only control.

[5] = target: T4, human PPARγ-LBD (coactivator peptide recruitment) (Homo sapiens, UniProt P37231); assay: LanthaScreen TR-FRET coactivator peptide recruitment assay; assay type: biochemical
T4 construct: incubated with GST-fused human PPARγ-LBD, terbium-labeled anti-GST antibody; purchased Invitrogen
T4 sequence (P37231 238-503 limits assumed): T3 sequence (P37231 238-503 limits assumed)
Experimental: PPARγ coregulator peptide interaction assay was performed by the LanthaScreen TR-FRET PPARγ Coactivator Assay Kit (Invitrogen) according to the manufacturer's instructions. Serial concentrations of compounds were incubated with GST-fused human PPARγ-LBD, terbium-labeled anti-GST antibody and fluorescein-labeled peptide for 4 h. The measurement and data calculation were as above.

[6] = test system: 3T3-L1 preadipocytes; assay: Adipogenic differentiation of 3T3-L1 preadipocytes (Oil red O, triglyceride content); assay type: cell-based, mouse
Experimental: 3T3-L1 preadipocytes were grown to confluency in DMEM containing 10% CS. At 2 days post-confluency, the cells were stimulated with differentiation medium (DMEM containing 10% FBS, 10 μg/mL insulin, 1 μM dexamethasone, and 0.5 mM IBMX) for 48 h. Then, the cells were exposed in post-differentiation-maintaining medium (DMEM containing 10% FBS and 10 μg/mL insulin) for a further 48 h, which was replaced with expansion medium (DMEM containing 10% FBS) every 2 days after then. Compounds were added to the post-differentiation and expansion medium. At day 4, the cells were harvested for RNA preparation. At Day 8, the cells were fixed with 10% formaldehyde and stained with Oil red O solution. After washing with water, photos were taken. Solubilized dye was quantified at 550 nm. In addition, total triglyceride of the cells was measured by a total TG measurement kit (Applygene, China). Experiments were performed at least three times.

[7] = test system: osteoblast marker genes in MC3T3-E1 cells; assay: Expression of osteoblast marker genes in MC3T3-E1 cells (qPCR); assay type: cell-based
Experimental: MC3T3-E1 cells were cultured in α-MEM to confluency in 24-well plates and then cultured in differentiation medium (α-MEM supplemented with 200 μM ascorbic acid and 10 mM β-glycerophosphate) for 7, 14, and 21 days, which was replaced every 3 days. The cells were treated with DMSO, rosiglitazone, or F12016 at the start of differentiation. At day 8, 15 and 22, total RNA was isolated, and real-time PCR was performed as described below.
Total RNA was extracted using TRIzol reagent (Invitrogen). First-strand cDNA was synthesized from the total RNA using a reverse transcriptional kit (TransGen). Quantitative PCR with SYBR Green (Roche Diagnostics, Lewes, UK) was performed on a Stratagene MX3000P real-time PCR system (Agilent). Melting curves were obtained, and the specificity of PCR products was checked on agarose gels. Relative mRNA expression was determined by the ΔΔCt method and normalized to GAPDH mRNA levels.

## 2-[2-(1, 2-dimethyl-1H-indol-3-yl)-2-oxo-acetylamino]-benzamide [Compound F12016]
[1]; 30 μM F12016, HEK293T
  transcriptional activity of PPARγ: significantly induced transcriptional activity of PPARγ
[1]; HEK293T, GAL4-PPARγ-LBD reporter
  maximal activation of GAL4-PPARγ: approximately 4 fold
[1]; HEK293T, GAL4-PPARγ-LBD reporter, read-out: PPARγ WT EC50 (activation of GAL4-PPARγ)
  EC50: 3.24 µM
[1]; activation relative to rosiglitazone (RGZ)
  PPARγ WT (RGZ %): 29.08%
[1]; in presence of 1 μM rosiglitazone, reporter assay
  concentration antagonizing rosiglitazone-dependent PPARγ activation: ≥ 2.5 µM
[2]
  transactivation of LXRβ: no effects
[3]
  transactivation of RXR: no effects
[4]
  IC50: 36.3 µM
  Ki: 13 µM
[5]; cofactor peptide CBP
  EC50/IC50 CBP: 0.349 µM
[5]; cofactor peptide CBP, maximum recruitment relative to rosiglitazone
  Efficacy CBP: 10%
[5]; cofactor peptide PGC-1α
  EC50/IC50 PGC-1α: 21.81 µM
[5]; cofactor peptide PGC-1α, maximum recruitment relative to rosiglitazone
  Efficacy PGC-1α: 57%
[5]; cofactor peptide RAP250
  EC50/IC50 RAP250: 5.765 µM
[5]; cofactor peptide RAP250, maximum recruitment relative to rosiglitazone
  Efficacy RAP250: 25%
[5]; cofactor peptide SRC1
  EC50/IC50 SRC1: 17.65 µM
[5]; cofactor peptide SRC1, maximum recruitment relative to rosiglitazone
  Efficacy SRC1: 26%
[5]; cofactor peptide SRC3
  EC50/IC50 SRC3: 15.06 µM
[5]; cofactor peptide SRC3, maximum recruitment relative to rosiglitazone
  Efficacy SRC3: 23%
[5]; cofactor peptide TIF2
  EC50/IC50 TIF2: 6.437 µM
[5]; cofactor peptide TIF2, maximum recruitment relative to rosiglitazone
  Efficacy TIF2: 17%
[5]; cofactor peptide TRAP220
  EC50/IC50 TRAP220: 5.132 µM
[5]; cofactor peptide TRAP220, maximum recruitment relative to rosiglitazone
  Efficacy TRAP220: 17%
[5]; span over the three cofactors
  recruitment of SRC 1 and 3 and RAP250 to PPARγ: 22–27 % of rosiglitazone
[6]; 6 days of stimulation
  intracellular triglyceride (TG) content: significantly reduced TG accumulation compared with rosiglitazone
[6]; F12016 30 μM vs 10 μM
  TG content of differentiating adipocytes at 30 μM compared with 10 μM: significantly less than that of 10 μM
[6]; RGZ 0.1, 1, 10 μM, F12016 1, 10, 30 μM
  lipid accumulation / intracellular lipid droplets (Oil red O staining): significantly reduced potency to form intracellular lipid droplets
[6]; supplementary Figure 2
  lipid droplet size, F12016 vs rosiglitazone: no significant difference
[7]; 7 days
  expression of Alp and Col1: increased expressions of Alp and Col1
[7]; 7 days, rosiglitazone 1 μM, compared with control
  expression of RANKL: not significantly changed
[7]; Ibsp 14 days, Bglap 21 days
  expression of Ibsp and Bglap: did not show any significant reductions
